Here are results for 26 compounds from patent publication US12583839B2, “PD-L1 antagonist compound” (ADLAI NORTYE BIOPHARMA CO., LTD., priority 2019, dated 2026).

pEC50: −log10 of the molar value.

In this experiment the target is T1, PD-1/PD-L1 (Homo sapiens, UniProt Q9NZQ7).
T1 construct: 60535 (PD-1/NFAT-Reporter-Jurkat); host or cells: CHO cells expressing PD-L1; Jurkat cells expressing PD-1
T1 sequence (Q9NZQ7 19-290): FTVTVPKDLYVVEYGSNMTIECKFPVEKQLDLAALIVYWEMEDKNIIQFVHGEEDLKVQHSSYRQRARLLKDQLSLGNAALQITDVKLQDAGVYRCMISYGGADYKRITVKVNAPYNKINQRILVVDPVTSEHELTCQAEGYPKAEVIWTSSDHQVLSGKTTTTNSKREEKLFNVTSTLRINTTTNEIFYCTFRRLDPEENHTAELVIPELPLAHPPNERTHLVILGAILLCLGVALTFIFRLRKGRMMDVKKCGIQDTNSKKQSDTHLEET
As to the kind of experiment: Detection of biological activity of PD-1/PD-L1 signaling inhibition at the cellular level (NFAT luciferase reporter, PD-1/NFAT-Reporter-Jurkat cells co-cultured with TCR activator/PD-L1-CHO cells). The note with it: PD-1/NFAT-Reporter-Jurkat + TCR activator/PD-L1-CHO co-culture, 6 hours; Atezolizumab as positive control. It counts as cell-based. In a few lines: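 CHO cells expressing PD-L1 and a TCR activator were seeded overnight at 37° C, pre-treated with compound for 30 minutes, then co-cultured 6 hours with Jurkat cells carrying PD-1 and an NFAT-luciferase reporter. Luminescence was read, and inhibition % was normalised between 0.1% DMSO and about 10 nM atezolizumab controls.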
(In general: In a reporter assay the amount or activity of a reporter protein is the signal.)
In the case of `COc1cc(-c2cccc(-c3cccc4c3cnn4Cc3cc(OC)c(CN(C)C4CCC(CC(=O)O)CC4)cc3C(F)(F)F)c2Cl)ccc1CNC[C@@H]1CCC(=O)N1` (some centres unmarked) [Compound 146], the pEC50 was 7.55.
`COc1cc(Cn2ncc3c(-c4cccc(-c5cc(F)c(CNC[C@@H]6CCC(=O)N6)c(OC)c5)c4Cl)cccc32)c(C(F)(F)F)cc1CN(C)[C@H]1CC[C@H](CC(=O)O)CC1` [Compound 147]: the pEC50 is 7.49.
To `COc1cc(Cn2ncc3c(-c4cccc(-c5cc(F)c(CNC[C@@H]6CCC(=O)N6)c(OC)c5)c4Cl)cccc32)c(C(F)(F)F)cc1CN(C)[C@H]1CC[C@H](C(=O)O)CC1` [Compound 148] belongs 7.47; to `COc1cc(Cn2ncc3c(-c4cccc(-c5cc(F)c(CNC[C@@H]6CCC(=O)N6)c(OC)c5)c4Cl)cccc32)c(C(F)(F)F)cc1CN(C)[C@H]1C[C@H](C(=O)O)C1` [Compound 149], 7.55.
With `COc1cc(Cn2ncc3c(-c4cccc(-c5cc(F)c(CNC[C@@H]6CCC(=O)N6)c(OC)c5)c4Cl)cccc32)c(C(F)(F)F)cc1CN(C)C12CCC(C(=O)O)(CC1)CC2` [Compound 150] the figure was 7.52.
Take `COc1cc(-c2cccc(-c3cccc4c3cnn4Cc3nc(OC)c(CN(C)[C@H]4CC[C@H](C(=O)O)CC4)cc3Cl)c2Cl)ccc1CNC[C@@H]1CCC(=O)N1` [Compound 151]: the negative-log EC50 (pEC50) was 7.20.
Consider `COc1cc(Cn2ncc3c(-c4cccc(-c5ccc(CNC[C@@H]6CCC(=O)N6)c(OC)n5)c4Cl)cccc32)c(Cl)cc1CN(C)[C@H]1CC[C@H](C(=O)O)CC1` [Compound 152], for which the negative-log EC50 (pEC50) is 7.25.
To `COc1cc(-c2cccc(-c3cccc4c3cnn4Cc3cc(OC)c(CN(C)C4CCC(C(=O)O)CC4)cc3Cl)c2Cl)ccc1CNC[C@@H]1CCCC(=O)N1` (some centres unmarked) [Compound 153] belongs 7.03.
To `COc1cc(-c2cccc(-c3c(Cl)ccc4c3cnn4Cc3cc(OC)c(CN[C@@H](CO)C(=O)O)cc3Cl)c2Cl)ccc1CNC[C@@H]1CCC(=O)N1` [Compound 154] belongs 6.41; to `COc1cc(Cn2ncc3c(-c4cccc(-c5cc(Cl)c(CNC[C@@H]6CCC(=O)N6)c(OC)c5)c4Cl)cccc32)c(Cl)cc1CN(C)CC1CCC(C(=O)O)CC1` (some centres unmarked) [Compound 155], 6.84.
As for `COc1cc(Cn2ncc3c(-c4cccc(-c5ccc(CNC[C@@H]6CCC(=O)N6)c(OC)n5)c4Cl)cccc32)c(Cl)c(F)c1CN(C)C12CCC(C(=O)O)(CC1)CC2` [Compound 157], the negative-log EC50 (pEC50) was 7.05.
With `COc1cc(-c2cccc(-c3ccc(Cl)c4c3cnn4Cc3cc(OC)c(CN[C@@H](CO)C(=O)O)cc3Cl)c2Cl)ccc1CNC[C@@H]1CCC(=O)N1` [Compound 158] the figure was 6.00.
With `CCN(Cc1cc(Cl)c(Cn2ncc3c(-c4cccc(-c5cc(F)c(CNC[C@@H]6CCC(=O)N6)c(OC)c5)c4Cl)cccc32)cc1OC)C12CCC(C(=O)O)(CC1)CC2` [Compound 159] the figure was 7.43.
To `COc1cc(Cn2ncc3c(-c4cccc(-c5cc(F)c(CNC[C@@H]6CCC(=O)N6)c(OC)c5)c4Cl)cccc32)c(Cl)cc1CN(C)C12CCC(CC(=O)O)(CC1)CC2` [Compound 160] belongs 7.34; to `COc1cc(Cn2ncc3c(-c4cccc(-c5cc(F)c(CNC[C@@H]6CCC(=O)N6)c(OC)c5)c4C)cccc32)c(Cl)cc1CN(C)C12CCC(C(=O)O)(CC1)CC2` [Compound 161], 7.12; to `COc1cc(Cn2ncc3c(-c4cccc(-c5cc(F)c(CNC[C@@H]6CCC(=O)N6)c(OC)c5)c4Cl)cccc32)c(Cl)cc1CN(C)[C@H]1CC[C@H](O)CC1` [Compound 162], 7.36.
For `COc1cc(-c2cccc(-c3cccc4c3cnn4Cc3nc(OC)c(CN(C)[C@H]4CC[C@H](C(=O)O)CC4)cc3Cl)c2Cl)cc(F)c1CNC[C@@H]1CCC(=O)N1` [Compound 163], the pEC50 is 7.59.
In the case of `COc1cc(Cn2ncc3c(-c4cccc(-c5ccc(CNC[C@@H]6CCC(=O)N6)c(OC)n5)c4C)cccc32)c(Cl)cc1CN(C)C12CCC(C(=O)O)(CC1)CC2` [Compound 164], the negative-log EC50 (pEC50) is 6.98.
With `COc1cc(-c2cccc(-c3cccc4c3cnn4Cc3nc(OC)c(CN(C)C45CCC(C(=O)O)(CC4)CC5)cc3Cl)c2C)cc(F)c1CNC[C@@H]1CCC(=O)N1` [Compound 166] the figure was 7.31; with `COc1cc(Cn2ncc3c(-c4cccc(-c5cc(F)c(CNC[C@H]6CCC(=O)N6)c(OC)c5)c4Cl)cccc32)c(Cl)cc1CN(C)C12CCC(C(=O)O)(CC1)CC2` [Compound 167], 7.28; with `COc1cc(Cn2ncc3c(-c4cccc(-c5cc(F)c(CNC[C@@H]6CCCC(=O)N6)c(OC)c5)c4Cl)cccc32)c(Cl)cc1CN(C)C12CCC(C(=O)O)(CC1)CC2` [Compound 168], 7.16.
With `COc1nc(-c2cccc(-c3cccc4c3cnn4Cc3nc(OC)c(CN(C)C45CCC(C(=O)O)(CC4)CC5)cc3Cl)c2C)ccc1CNC[C@@H]1CCC(=O)N1` [Compound 169] the figure was 7.23; with `COc1cc(Cn2ncc3c(-c4cccc(-c5cnc(CNC[C@@H]6CCC(=O)N6)c(OC)n5)c4C)cccc32)c(Cl)cc1CN(C)C12CCC(C(=O)O)(CC1)CC2` [Compound 170], 6.58; with `COc1cc(Cn2ncc3c(-c4cccc(-c5cc(F)c(CNC[C@@H]6CCC(=O)N6)c(OC)c5)c4Cl)cccc32)c(Cl)cc1CN(CCO)[C@H]1CC[C@H](C(=O)O)CC1` [Compound 171], 7.40.
To `COc1cc(-c2cccc(-c3cccc4c3cnn4Cc3nc(OC)c(CN(C)C45CCC(C(=O)O)(CC4)CC5)cc3Cl)c2Cl)cc(F)c1CNC[C@@H]1CCCC(=O)N1` [Compound 172] belongs 7.49; to `COc1cc(-c2cccc(-c3cccc4c3cnn4Cc3cc(N)c(CN(C)[C@H]4CC[C@H](C(=O)O)CC4)cc3Cl)c2Cl)cc(F)c1CNC[C@@H]1CCC(=O)N1` [Compound 173], 6.65.

What is called pEC50 is the EC50 on a negative log10 scale, so that one unit is a factor of ten.
